Experimental findings from ChEMBL document CHEMBL3102777, “Binding ability of a thymine-functionalized oligolysine towards nucleic acids” (Bioorg Med Chem, 2014) are described below.

Data set [1] can be described thus: Half life in 94% human serum at 14 uM. In kind it is ADME.
The nature of data set [2]: Binding affinity to […] RNA (unknown origin) by surface plasmon resonance assay. In general terms: In SPR one partner is held on a chip, and binding of the other changes the refractive index at the surface.
Data set [3] is described as follows: Binding affinity to poly rA RNA (unknown origin) by surface plasmon resonance assay.
Data set [4] can be described thus: Binding affinity to poly rA RNA (unknown origin) at 2:1 compound to RNA ratio assessed as melting temperature by circular dichroism analysis. (Circular dichroism is the unequal absorption of left and right circularly polarised light.)
The nature of data set [5]: Binding affinity to […] RNA (unknown origin) at 12.8 uM assessed as melting temperature by UV analysis.
Data set [6] in a line: Binding affinity to dA12 DNA (unknown origin) at 10 uM assessed as melting temperature by UV analysis.
A short description of data set [7]: Binding affinity to poly rA RNA (unknown origin) at 2:1 compound to RNA ratio by circular dichroism analysis.
The nature of data set [8]: Binding affinity to poly rA RNA (unknown origin) at 24 nM by circular dichroism analysis.
Data set [9] can be described thus: Binding affinity to […] RNA (unknown origin) at 2:1 compound to RNA ratio by circular dichroism analysis.
Data set [10] is described as follows: Binding affinity to […] RNA (unknown origin) at 1.5:1 compound to RNA ratio by circular dichroism analysis.
Data set [11] in a line: Binding affinity to dA12 DNA (unknown origin) at 2.5:1 compound to DNA ratio by circular dichroism analysis.
The nature of data set [12]: Binding affinity to dT12 DNA (unknown origin) at 24 nM by circular dichroism analysis.
Data set [13] can be described thus: Binding affinity to dA12 DNA (unknown origin) at 24 nM by circular dichroism analysis.

Activity calls are given as the source filed them. The rule behind the calls is not given here. Residues, ends and D or L forms follow the SMILES beside them. *: point of attachment. Acetyl(thymin-1-yl) = Cc1cn(CC(=O)*)c(=O)[nH]c1=O

The compound `Cc1cn(CC(=O)NCCCC[C@H](NC(=O)[C@H](CCCCN)NC(=O)[C@H](CCCCNC(=O)Cn2cc(C)c(=O)[nH]c2=O)NC(=O)[C@H](CCCCN)NC(=O)[C@H](CCCCNC(=O)Cn2cc(C)c(=O)[nH]c2=O)NC(=O)[C@H](CCCCN)NC(=O)[C@H](CCCCNC(=O)Cn2cc(C)c(=O)[nH]c2=O)NC(=O)[C@H](CCCCN)NC(=O)[C@H](CCCCNC(=O)Cn2cc(C)c(=O)[nH]c2=O)NC(=O)[C@H](CCCCN)NC(=O)[C@@H](N)CCCCNC(=O)Cn2cc(C)c(=O)[nH]c2=O)C(=O)N[C@@H](CCCCN)C(N)=O)c(=O)[nH]c1=O` (H-K(Acetyl(thymin-1-yl))KK(Acetyl(thymin-1-yl))KK(Acetyl(thymin-1-yl))KK(Acetyl(thymin-1-yl))KK(Acetyl(thymin-1-yl))KK(Acetyl(thymin-1-yl))K-NH2) had a half-life at 14 µM in data set [1] of 45 min. Further, the outcome in data set [2], in [3], in [7], in data set [8], in data set [9] and in data set [10] was Active. Moreover, the outcome in data set [11], in data set [12] and in data set [13] was Active. In addition, the Tm in [4] was determined as 35 °C; in data set [5] it was 27 °C; in [6], 25 °C.

As usually defined, the half-life is how long it takes for the measured level to halve. The low end stands for fast loss, the high end for slow loss.
